According to US9061026B2, “Oligomer-diarylpiperazine conjugates” (priority 2008, dated 2015):
pIC50, pKd, pKi: −log10 of the molar value. Where two headings read alike, the source gives them in different places.

What was measured:
[1] = molecular target: Opiate Receptor, delta (OP1, DOP) (Homo sapiens, UniProt P41143); test: Radioligand competition binding, Opiate Receptor, delta (OP1, DOP), [3H]-naltrindole, CHO cells
[2] = molecular target: T1, Opiate Receptor, kappa (OP2, KOP) (Homo sapiens, UniProt P41145); test: biochemical; assay type: binding
T1 construct: expressed in transfected cells; host or cells: HEK-293 cells, membrane preparation
T1 sequence (P41145 whole entry): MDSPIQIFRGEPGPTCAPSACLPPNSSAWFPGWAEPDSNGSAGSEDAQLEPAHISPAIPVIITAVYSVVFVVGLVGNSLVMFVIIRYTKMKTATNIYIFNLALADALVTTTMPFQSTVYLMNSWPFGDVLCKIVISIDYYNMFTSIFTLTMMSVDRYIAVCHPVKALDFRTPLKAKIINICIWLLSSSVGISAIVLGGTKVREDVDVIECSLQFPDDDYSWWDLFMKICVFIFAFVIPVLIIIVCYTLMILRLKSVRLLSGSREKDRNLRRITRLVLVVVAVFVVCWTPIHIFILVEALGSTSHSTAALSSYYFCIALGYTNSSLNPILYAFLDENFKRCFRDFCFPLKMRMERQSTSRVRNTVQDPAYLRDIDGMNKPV

[3] = molecular target: Opiate Receptor, μ (OP3, MOP) (Homo sapiens, UniProt P35372); test: Radioligand competition binding, Opiate Receptor, μ (OP3, MOP), [3H]-diprenorphine, CHO-K1 cells
Opiate Receptor, μ (OP3, MOP), sequence (P35372 whole entry): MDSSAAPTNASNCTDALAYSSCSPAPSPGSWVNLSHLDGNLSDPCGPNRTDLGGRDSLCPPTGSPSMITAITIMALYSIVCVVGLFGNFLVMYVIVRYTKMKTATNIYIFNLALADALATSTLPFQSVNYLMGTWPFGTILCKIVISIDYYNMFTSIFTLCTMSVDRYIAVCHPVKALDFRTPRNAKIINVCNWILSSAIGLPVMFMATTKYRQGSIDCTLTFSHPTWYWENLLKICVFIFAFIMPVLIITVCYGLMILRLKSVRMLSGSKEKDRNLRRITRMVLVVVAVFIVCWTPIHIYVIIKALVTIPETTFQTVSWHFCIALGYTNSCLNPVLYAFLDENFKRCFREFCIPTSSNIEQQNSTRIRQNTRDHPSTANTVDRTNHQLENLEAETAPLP

[4] = molecular target: Opiate δ (Homo sapiens, UniProt P41143); test: Opiate δ receptor binding (Table 1); conditions: for pKi: read-out: Opiate δ, Ki; for Fold change: Opiate δ Ki relative to ±BW373U86 (=1)
Opiate δ, sequence (P41143 whole entry): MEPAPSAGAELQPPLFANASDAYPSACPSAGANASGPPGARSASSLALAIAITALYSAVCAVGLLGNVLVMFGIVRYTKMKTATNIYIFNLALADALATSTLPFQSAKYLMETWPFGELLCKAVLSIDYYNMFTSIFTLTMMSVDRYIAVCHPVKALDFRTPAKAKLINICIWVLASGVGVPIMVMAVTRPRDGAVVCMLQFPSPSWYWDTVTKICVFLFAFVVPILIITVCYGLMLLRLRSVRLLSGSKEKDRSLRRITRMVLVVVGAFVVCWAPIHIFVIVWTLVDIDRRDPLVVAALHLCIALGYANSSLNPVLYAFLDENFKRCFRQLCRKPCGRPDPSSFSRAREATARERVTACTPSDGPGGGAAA

[5] = molecular target: Delta Opioid Receptor; test: Delta Opioid Receptor Binding, forebrain, representative data set; conditions: radioligand [3H]Enkephalin, DPDPE, read-out: Kd (binding affinity)
Description: Binding characteristics for various receptors including, but not limited to, delta, kappa, and mu opioid receptors are determined.

Opiate Receptor, delta (OP1, DOP), sequence (P41143 whole entry): as above

For `Br.Br.C=CCN1CC(C)N(C(c2ccc(C(=O)N(CC)CC)cc2)c2cccc(O)c2)CC1C` (racemic) [(+/−) BW373U86 dihydrobromide, reference compound], the pIC50 ([1]; read-out: IC50) was 8.49, the pKi ([1]; read-out: Ki) was 8.94 and the nH [2] was 0.92. The pIC50 ([2]; read-out: IC50) was 6.25, the pKi ([2]; read-out: Ki) was 6.65 and the nH [3] was 0.92. For the same compound, the pIC50 ([3]; read-out: IC50) was 6.18 and the pKi ([3]; read-out: Ki) was 6.57.
`CCN(CC)C(=O)c1ccc([C@H](c2cccc(O)c2)N2C[C@@H](C)N(CCOCCOCCOC)C[C@@H]2C)cc1` (racemic) [mPEG3-N-(+/−)-BW373U86, (±)-4-[(αR)-α-((2S,5R)-4-methoxy(triethylene glycol)-2,5-dimethyl-1-piperazinyl)-3-hydroxybenzyl]-N,N-diethylbenzamide] gave a pIC50 ([1]; read-out: IC50) of 6.12, a pKi ([1]; read-out: Ki) of 6.57 and a pIC50 ([3]; read-out: IC50) of 5.03. It also gave a pKi ([3]; read-out: Ki) of 5.42.
With `C=CCN1C[C@H](C)N([C@H](c2ccc(C(=O)N(CC)CC)cc2)c2cccc(OCCOCCOCCOC)c2)C[C@H]1C` (racemic) [mPEG-3 ± BW373U86, (±)-4-[(αR)-α-((2S,5R)-4-Allyl-2,5-dimethyl-1-piperazinyl)-3-O-methoxy(triethylene glycol)benzyl]-N,N-diethylbenzamid] the pKi ([4]; Table 1) was roughly 6.38.
In the case of `C=CCN1C[C@H](C)N([C@H](c2ccc(C(=O)N(CC)CC)cc2)c2cccc(OCCOCCOCCOCCOCCOCCOCCOC)c2)C[C@H]1C` (racemic) [mPEG-7 ± BW373U86, (±)-4-[(αR)-α-((2S,5R)-4-Allyl-2,5-dimethyl-1-piperazinyl)-3-O-methoxy(heptaethylene glycol)benzyl]-N,N-diethylbenzamid], the Fold change [4] was roughly 298 and the pKi ([4]; Table 1) was roughly 5.88.
`C=CCN1C[C@H](C)N([C@H](c2ccc(C(=O)N(CC)CC)cc2)c2cccc(O)c2)C[C@H]1C` (racemic) [±BW373U86, (±)-4-[(αR)-α-((2S,5R)-4-Allyl-2,5-dimethyl-1-piperazinyl)-3-hydroxbenzyl]-N,N-diethylbenzamide, reference compound] showed a Ki ([4]; Opiate δ, Ki (nM), Table 1) of 0.36 nM.
`C=CCN1C[C@H](C)N([C@H](c2ccc(C(=O)N(CC)CC)cc2)c2cccc(O)c2)C[C@H]1C` [(+) BW373U86, (+)-4-[(αR)-α-((2S,5R)-4-Allyl-2,5-dimethyl-1-piperazinyl)-3-hydroxbenzyl]-N,N-diethylbenzamide, reference compound] showed a pIC50 [1] of 9.00, a pKi [1] of 9.45 and a nH [1] of 0.91. For the same compound, the pIC50 [2] was 6.65, the pKi [2] was 7.05 and the nH [2] was 0.78. It also gave a pIC50 [3] of 6.51, a pKi [3] of 6.90 and a nH [3] of 0.83.
`CCN(CC)C(=O)c1ccc(C(c2cccc(O)c2)N2CCN(Cc3ccccc3)CC2)cc1` (centres unmarked) [N-benzyl-deallyl-demethyl-BW373U86, 4-[(4-Benzyl-1-piperazinyl)-3-hydroxbenzyl]-N,N-diethylbenzamid] was tested, and the pIC50 [1] was 8.88, the pKi [1] was 9.33 and the nH [1] was 0.99. The pIC50 [2] was 5.63, the pKi [2] was 6.02 and the nH [2] was 0.95. The pIC50 [3] was 5.56, the pKi [3] was 5.95 and the nH [3] was 0.90.
Work on `C=CCN1CCN(C(c2ccc(C(=O)N(CC)CC)cc2)c2cccc(O)c2)CC1` (centres unmarked) [demethyl-BW373U86, 4-[(4-Allyl-1-piperazinyl)-3-hydroxbenzyl]-N,N-diethylbenzamid] yielded a nH [1] of 1.10, a pIC50 ([1]; read-out: IC50) of 8.15 and a pKi ([1]; read-out: Ki) of 8.60. It also gave a nH [2] of 0.87, a pIC50 ([2]; read-out: IC50) of 6.00 and a pKi ([2]; read-out: Ki) of 6.40. For the same compound, the nH [3] was 1.02, the pIC50 ([3]; read-out: IC50) was 4.96 and the pKi ([3]; read-out: Ki) was 5.35.
`CCN(CC)C(=O)c1ccc(C(c2cccc(OCCOCCOCCOC)c2)N2CCN(Cc3ccccc3)CC2)cc1` (centres unmarked) [mPEG3-N-benzyl-deallyl-demethyl-BW373U86, 4-[(4-Benzyl-1-piperazinyl)-3-O-methoxy(triethyleneglycol)benzyl]-N,N-diethylbenzamide] showed a pIC50 [1] of 6.67, a pKi [1] of 7.13 and a nH [1] of 1.50.
`C=CCN1CCN(C(c2ccc(C(=O)N(CC)CC)cc2)c2cccc(OCCOCCOCCOC)c2)CC1` (centres unmarked) [mPEG3-demethyl-BW373U86, 4-[(4-Allyl-1-piperazinyl)-3-O-methoxy(triethyleneglycol)benzy]-N,N-diethylbenzamid] showed a pIC50 ([1]; read-out: IC50) of 5.22 and a pKi ([1]; read-out: Ki) of 5.67.
With `CCN(CC)C(=O)c1ccc(C(c2cccc(OCCOCCOCCOCCOCCOCCOCCOC)c2)N2CCN(Cc3ccccc3)CC2)cc1` (centres unmarked) [mPEG7-N-benzyl-deallyl-demethyl-BW373U86, 4-[(4-Benzyl-1-piperazinyl)-3-O-methoxy(heptaethyleneglycol)benzyl]-N,N-diethylbenzamid] the pIC50 [1] was 6.97, the pKi [1] was 7.43 and the nH [1] was 1.08.
`C=CCN1CCN(C(c2ccc(C(=O)N(CC)CC)cc2)c2cccc(OCCOCCOCCOCCOCCOCCOCCOC)c2)CC1` (centres unmarked) [mPEG7-demethyl-BW373U86, 4-[(4-Allyl-1-piperazinyl)-3-O-methoxy(heptaethylene glycol)benzyl]-N,N-diethylbenzamide] showed a pIC50 ([1]; read-out: IC50) of 5.46 and a pKi ([1]; read-out: Ki) of 5.91.
`C=CCN1C[C@H](C)N([C@H](c2ccc(C(=O)N(CC)CC)cc2)c2cccc(OCCOCCOCCOC)c2)C[C@H]1C` [mPEG-3 + BW373U86, (+)-4-[(αR)-α-((2S,5R)-4-Allyl-2,5-dimethyl-1-piperazinyl)-3-O-methoxy(triethylene glycol)benzyl]-N,N-diethylbenzamid] showed a pKi ([4]; Table 1) of 6.31, a pIC50 ([1]; read-out: IC50) of 6.14 and a pKi ([1]; read-out: Ki) of 6.59.
`C=CCN1C[C@H](C)N([C@H](c2ccc(C(=O)N(CC)CC)cc2)c2cccc(OCCOCCOCCOCCOCCOCCOCCOC)c2)C[C@H]1C` [mPEG-7 + BW373U86, (+)-4-[(αR)-α-((2S,5R)-4-Allyl-2,5-dimethyl-1-piperazinyl)-3-O-methoxy(heptaethylene glycol)benzyl]-N,N-diethylbenzamid] gave a Fold change [4] of 242.7 and a pKi ([4]; Table 1) of 6.06.
Work on DPDPE [[3H]Enkephalin, DPDPE] yielded a pKd [5] of 8.68.
